# “Also recorded” adds a separate entry of the source.
# Legend:
# [1] = Stretching by acetic acid (chemical stimulus), analgesic activity; assay type: in vivo, mice, Rockland-Roux-Ocefa stock
# Method: Twelve mice of both sexes, Rockland-Roux-Ocefa stock of weight 23-25 g were used per group. The drugs were administered orally 30 minutes before i.p. injection of 0.1 ml/10 g of 0.6% acetic acid.
# [2] = Hot plate method (thermal stimulus), analgesic activity; assay type: in vivo, Male mice
# Method: This is based on the time (seconds) taked by the mouse for removing his paws from a plate heated to 56° C. Male mice were used of weight 25 to 27 g, preselected so that all reacted in a time less than 20 seconds.
# The reaction time was measured 15, 30 and 60 minutes after administering the drugs. The chlorophenazole was tested orally and subcutaneously, both alone and associated with morphine hydrochloride. […] (FIGS. 2 and 3).
# [3] = Pulminary edema by carrageen (Sancilio method, pleural exudate); assay type: in vivo, Wistar-Roux-Ocefa rats
# Method: Using the Sancilio method (Sancilio F. L., J. Pharmacol. Exptl. Therap., 168, 199 (1969); Sancilio L. F. Rodrigues R., Proc. Soc. Exptl. Biol. Med., 123, 707 (1969); Sancilio L. F. Lawrence R., Proc. Soc. Exptl. Biol. Med., 127, 597 (1968), pulminary irritation was induced in Wistar-Roux-Ocefa rats and the capacity of chlorophenazole and other drugs to prevent production of pleural exudate was measured. 5 ml of a 0.025% carrageen solution and 0.075% Evans blue were injected into the pleurea.
# The action of chlorophenazole, mepyrazole and phenylbutazone were evaluated from the quantity of exudate present in the pleural cavity after 1 and 6 hours.
# Rat = assay: Acute toxicity, rat
# [4] = Edema by carrageen (rat paw), antiedematous activity; assay type: in vivo, Rats of the Wistar-Roux-Ocefa stock
# Method: A 1% physiological solution of carrageen was used. Rats of the Wistar-Roux-Ocefa stock having a weight of 150±30 g were used. The drugs were suspended in 1% carboxymethylcellulose or dissolved in distilled water and administered orally one hour before the inflammatory agent in a volume of 0.5 ml/100 g. The carrageen was adminstered subcutaneously in the subplanetary region of one of the rear paws. The volume of the paw was measured platysmagraphically initially and then after 1.5 hour, 3 hours and 5 hours after administering the carrageen. One inflammation unit was defined as the displacement of 0.01 ml of Hg.
# The edema was evaluated as the difference in volume of the rear paw before and after the carrageen. The DE 50 was calculated by the probits method and graphically. The comparison drugs used were phenylbutazone and niflumic acid.
smiles,measurement,setting,value
"Cc1[nH]cnc1-c1ccc(Cl)cc1 [Chlorophenazole, 4-(p-chlorophenyl)-5-methylimidazole]",% effect,[1]; 21.3 mg/kg oral,18%
same,Number of stretches/20 min.,[1]; 21.3 mg/kg oral,70 stretches/20 min.
same,% effect,[1]; 33.0 mg/kg oral,42%
same,Number of stretches/20 min.,[1]; 33.0 mg/kg oral,49 stretches/20 min.
same,% effect,[1]; 51.0 mg/kg oral,66%
same,Number of stretches/20 min.,[1]; 51.0 mg/kg oral,29 stretches/20 min.
same,analgesic activity,[1]; oral,"very good analgesic activity, decidedly better than that of the clonixine (Table 5) and mepyrazole"
same,reaction time relative to control mice,[2]; 50 mg/kg oral,significantly prolongs the reaction time relative to the control mice
same,effect on morphine analgesia,[2]; associated with morphine hydrochloride,evident increase exerted by the drug on morphine analgesia
same,ml of exudate,"[3]; 30 mg/Kg, pleural cavity",3.11 mL
same,activity on pleural exudate,[3]; exudate after 1 and 6 hours,significantly active
same,symptoms preceding death,"Rat; rat and mouse, acute toxicity","reduction in spontaneous motility, sedation, hypotherma, paralysis"
same,acute toxicity values and therapeutic index relative to phenylbutazone,Rat; summary,well in excess of those for phenylbutazone
same,Δ Volume of the inflamed paw,"[4]; 10 mg/kg oral, 1.5 hours",15 UPI
same,Δ Volume of the inflamed paw,"[4]; 10 mg/kg oral, 3 hours",35 UPI
same,Δ Volume of the inflamed paw,"[4]; 10 mg/kg oral, 5 hours",58 UPI
same,Δ Volume of the inflamed paw,"[4]; 20 mg/kg oral, 1.5 hours",15 UPI
same,Δ Volume of the inflamed paw,"[4]; 20 mg/kg oral, 3 hours",29 UPI
same,Δ Volume of the inflamed paw,"[4]; 20 mg/kg oral, 5 hours",44 UPI
same,Δ Volume of the inflamed paw,"[4]; 40 mg/kg oral, 1.5 hours",15 UPI
same,Δ Volume of the inflamed paw,"[4]; 40 mg/kg oral, 3 hours",23 UPI
same,Δ Volume of the inflamed paw,"[4]; 40 mg/kg oral, 5 hours",42 UPI
same,IT (DL50/DE50),"[4]; DL50/DE50, os",73.60
same,ED50,"[4]; Rattus norvegicus, po, os, probits method and graphically, read-out: DE50 (the source's name)",7 mg/kg
same,antiedematous activity relative to comparison drugs,[4]; oral,more active than phenylbutazone; also recorded: only slightly more active than niflumic acid
same,"antiinflamatory analgesic activity, overall comparison",[4]; summary of the tests,"decidedly better than phenylbutazone, niflumic acid, clonixine or mepyrazole"

# — patent US4499104A, “Imidazole compound, the process for its preparation, and therapeutically active compositions containing same” (priority 1976, dated 1985)
